According to patent publication US6552012B2 (priority 2000, dated 2003):
Structures can show the parent of a compound that is named as a salt. Where two headings read alike, the source gives them in different places.

Legend:
[1] = molecular target: T1, nAChRs comprised of α4 and β2 subunits (Rattus norvegicus, UniProt P09483+P12390); assay: In vitro inhibition of 3H-cytisine binding (Assay I)
T1 construct: Cerebral corticies from male Wistar rats (150-250 g) are homogenised; from tissue; host or cells: rat cerebral cortex membranes (male Wistar)
T1 sequence (P09483 31-630): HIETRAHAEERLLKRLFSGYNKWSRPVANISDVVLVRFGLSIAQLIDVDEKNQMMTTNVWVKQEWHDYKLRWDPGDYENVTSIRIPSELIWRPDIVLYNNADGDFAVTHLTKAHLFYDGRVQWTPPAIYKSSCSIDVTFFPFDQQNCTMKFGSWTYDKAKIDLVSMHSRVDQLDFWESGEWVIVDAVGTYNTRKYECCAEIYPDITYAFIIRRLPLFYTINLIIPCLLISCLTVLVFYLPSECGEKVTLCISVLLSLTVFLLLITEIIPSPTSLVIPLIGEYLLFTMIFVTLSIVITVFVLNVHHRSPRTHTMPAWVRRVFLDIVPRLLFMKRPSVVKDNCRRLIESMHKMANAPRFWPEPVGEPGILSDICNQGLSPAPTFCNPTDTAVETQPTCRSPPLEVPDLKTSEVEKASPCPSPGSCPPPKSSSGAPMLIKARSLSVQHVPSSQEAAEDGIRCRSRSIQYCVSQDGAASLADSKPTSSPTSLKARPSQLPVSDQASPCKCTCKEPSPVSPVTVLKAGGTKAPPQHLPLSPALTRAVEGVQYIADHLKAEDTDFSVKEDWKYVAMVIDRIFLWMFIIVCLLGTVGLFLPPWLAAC
T1 sequence (P12390 25-500): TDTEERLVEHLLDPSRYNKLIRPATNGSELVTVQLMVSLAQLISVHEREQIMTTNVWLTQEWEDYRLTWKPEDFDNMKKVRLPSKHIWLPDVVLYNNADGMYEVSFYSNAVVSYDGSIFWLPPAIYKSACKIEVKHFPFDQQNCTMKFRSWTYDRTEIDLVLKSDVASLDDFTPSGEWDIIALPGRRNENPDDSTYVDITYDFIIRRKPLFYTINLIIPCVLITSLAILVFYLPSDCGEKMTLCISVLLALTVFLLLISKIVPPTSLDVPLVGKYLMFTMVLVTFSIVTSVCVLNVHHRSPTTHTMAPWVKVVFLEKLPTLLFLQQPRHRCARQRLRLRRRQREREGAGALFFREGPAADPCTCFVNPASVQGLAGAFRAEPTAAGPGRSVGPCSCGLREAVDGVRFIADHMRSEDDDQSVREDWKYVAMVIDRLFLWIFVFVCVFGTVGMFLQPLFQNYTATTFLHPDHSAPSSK
Description: In Vitro inhibition of ^3H-cytisine binding (Assay I)
The predominant subtype with high affinity for nicotine is comprised of α4 and β2 subunits. nAChRs of the latter type can selectively be labelled by the nicotine agonist ^3H-cytisine.
Preparations are performed at 0-4° C. unless otherwise indicated. Cerebral corticies from male Wistar rats (150-250 g) are homogenised for 20 seconds in 15 ml Tris, HCl (50 mM, pH 7.4) containing 120 mM NaCl, 5 mM KCl, 1 mM MgCl2 and 2.5 mM CaCl2 using an Ultra-Turrax homogeniser. The homogenate is centrifuged at 27,000×g for 10 minutes. The supernatant is discarded and the pellet is resuspended in fresh buffer and centrifuged a second time. The final pellet is resuspended in fresh buffer (35 ml per g of original tissue) and used for binding assays.
Aliquots of 500 μl homogenate are added to 25 μl of test solution and 25 μl of ^3H-cytisine (1 nM, final concentration), mixed and incubated for 90 minutes at 2° C. Non-specific binding is determined using (−)-nicotine (100 μM, final concentration). After incubation the samples are added 5 ml of ice-cold buffer and poured directly onto Whatman GF/C glass fibre filters under suction and immediately washed with 2×5 ml ice-cold buffer. The amount of radioactivity on the filters is determined by conventional liquid scintillation counting. Specific binding is total binding minus non-specific binding.

[2] = molecular target: T2, nAChR formed by the α7 subunit isoform (Rattus norvegicus, UniProt Q05941); assay: biochemical; assay type: binding; conditions: read-out: Assay III IC50
T2 construct: Cerebral cortices from male Wistar rats (150-250 g) are homogenised; from tissue; host or cells: rat cerebral cortex membranes (male Wistar)
T2 sequence (Q05941 23-502): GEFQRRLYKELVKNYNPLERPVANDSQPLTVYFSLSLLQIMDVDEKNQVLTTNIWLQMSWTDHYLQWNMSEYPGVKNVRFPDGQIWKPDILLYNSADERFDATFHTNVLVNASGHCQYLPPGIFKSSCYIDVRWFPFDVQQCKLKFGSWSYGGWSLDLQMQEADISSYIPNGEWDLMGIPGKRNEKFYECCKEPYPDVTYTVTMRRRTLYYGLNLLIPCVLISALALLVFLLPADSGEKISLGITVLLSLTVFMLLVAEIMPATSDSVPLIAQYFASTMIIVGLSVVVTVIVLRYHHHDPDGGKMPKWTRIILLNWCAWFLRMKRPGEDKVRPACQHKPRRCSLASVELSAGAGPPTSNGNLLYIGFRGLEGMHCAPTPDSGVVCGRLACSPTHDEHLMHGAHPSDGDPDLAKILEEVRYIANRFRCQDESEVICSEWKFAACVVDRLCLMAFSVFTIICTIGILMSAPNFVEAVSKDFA

[3] = 3H-cytisine 1 nM, rat cerebral cortex homogenate, read-out: Assay I IC50

| Structure (SMILES) | melting point [°C] | IC50 [1, 3] [nM] | IC50 [2] [nM] | IC50 [1] [nM] |
| --- | --- | --- | --- | --- |
| CN1C2CCC1CN(c1cncc(Cl)c1)CC2.O=C(O)/C=C/C(=O)O (stereo not drawn) | 181 to 182 |  |  |  |
| CN1C2CCCC1CN(c1cncc(Br)c1)CC2.O=C(O)/C=C/C(=O)O (stereo not drawn) | 162.5 to 164.5 |  |  |  |
| CCOc1cc(N2CCC3CCC(C2)N3C)cnc1Cl.O=C(O)/C=C/C(=O)O (stereo not drawn) | 208.6 |  |  |  |
| CC=COc1cncc(N2CCC3CCC(C2)N3)c1 (stereo not drawn) (as salt: fumaric acid salt) [3-[5-(Propyl-1-en-oxy)-3-pyridyl]-3,9-diazabicyclo-[4.2.1]-nonane bis Fumaric Acid Salt] | 144 to 146 |  |  |  |
| CC=COc1cncc(N2C3CCNCC2CC3)c1 (stereo not drawn) (as salt: fumaric acid salt) [9-[5-(Propyl-1-en-oxy)-(3-pyridyl)]-3,9-diazabicyclo-[4.2.1]-nonane Fumaric Acid Salt] | 161.5 to 163 |  |  |  |
| COc1cncc(N2C3CCNCC2CC3)c1 (stereo not drawn) (as salt: fumaric acid salt) [9-[5-Methoxy)-(3-pyridyl)]-3,9-diazabicyclo-[4.2.1]-nonane Fumaric Acid Salt] | 183 to 185 |  |  |  |
| C=COc1cncc(N2CCC3CCC(C2)N3)c1.O=C(O)/C=C/C(=O)O (stereo not drawn) [3-(5-Ethenyloxy-3-pyridyl)-3,9-diazabicyclo-[4.2.1]-nonane Fumaric Acid Salt] | 145 to 147 | 2 | 1500 |  |
| CCOc1cncc(N2CCC3CCC(C2)N3)c1.O=C(O)/C=C/C(=O)O (stereo not drawn) [3-(5-Ethoxy-3-pyridyl)-3,9-diazabicyclo-[4.2.1]-nonane Fumaric Acid Salt] | 143 to 146 | < 30 | 6200 |  |
| C=COc1cncc(N2CCC3CCC(C2)N3C)c1 (stereo not drawn) [3-(5Ethenyloxy-3-pyridyl)-9-methyl-3,9-diazabicyclo-[4.2.1]-nonane Fumaric Acid Salt] |  | 3 | 5800 |  |
| CC=COc1cncc(N2CCC3CCC(C2)N3)c1 (stereo not drawn) [3-[5-(Propyl-1-en-oxy)-3-pyridyl]-3,9-diazabicyclo-[4.2.1]-nonane bis Fumaric Acid Salt] |  |  | 1800 | 2 |
| CC=COc1cncc(N2CCC3CCC(C2)N3C)c1 (stereo not drawn) [3-[5-(Propyl-1-en-oxy)-3-pyridyl]-9-methyl-3,9-diazabicyclo-[4.2.1]-nonane Fumaric Acid Salt] |  |  | 10000 | 5 |
| CCOc1cncc(N2CCC3CCC(C2)N3C)c1 (stereo not drawn) [3-[5-Ethoxy-(3-pyridyl)]-9-methyl-3,9-diazabicyclo-[4.2.1]-nonane bis-fumaric Acid Salt] |  | 5 | 8100 |  |
| Clc1ccc(N2CCC3CCC(C2)N3)nn1 (stereo not drawn) [3-[6-Chloro-(3-pyridazinyl)]-3,9-diazabicyclo-[4.2.1]-nonane Fumaric Acid Salt] |  |  | 1400 | 20 |
| CN1C2CCC1CN(c1ccc(Cl)nn1)CC2 (stereo not drawn) [3-[6-Chloro-(3-pyridazinyl)]-9-methyl-3,9-diazabicyclo-[4.2.1]-nonane Fumaric Acid Salt] |  |  | 10000 | 1200 |
| CC=COc1cncc(N2C3CCNCC2CC3)c1 (stereo not drawn) [9-[5-(Propyl-1-en-oxy)-(3-pyridyl)]-3,9-diazabicyclo-[4.2.1]-nonane Fumaric Acid Salt] |  | 3 | 2700 |  |
| CCOc1cncc(N2C3CCNCC2CC3)c1 (stereo not drawn) [9-[5-Ethoxy-(3-pyridyl)]-3,9-diazabicyclo-[4.2.1]-nonane Fumaric Acid Salt] |  | 3 | 2700 |  |
| COc1cncc(N2C3CCNCC2CC3)c1 (stereo not drawn) [9-[5-Methoxy)-(3-pyridyl)]-3,9-diazabicyclo-[4.2.1]-nonane Fumaric Acid Salt] |  |  | 3000 | 150 |
